Several values for one entry are separate records, joined by “and”; a condition that tells them apart may be missing. Equal values may be shown once. Read-outs that look alike come from different tables or passages of the source.
Tests used:
[1] = system: large-conductance Ca^2+-activated K^+ channels (BK channels); assay: Slow blockade: long shut events and burst durations in single BK channels; format: biochemical, goldfish, Carassius auratus
BK channels [2] = conditions: cited from earlier work
BK channels [3] = conditions: T-tubule membrane in lipid bilayers; ref Oberhauser et al., 1988; cited from earlier work
[4] = system: large-conductance Ca^2+-activated K^+ channels (BK channels); assay: Steady state activation of BK channels; format: biochemical, goldfish, Carassius auratus; conditions: for Po: 20 μM [Sr^2+]i or 5 μM [Ca^2+]i (equipotent); for decrease in V0.5 produced by a 10-fold increase in concentration: slopes of concentration–V0.5 plots
[5] = system: large-conductance Ca^2+-activated K^+ channels (BK channels); format: biochemical, goldfish, Carassius auratus; conditions: voltage steps −50 to +50 mV; 20 μM Sr^2+ or 5 μM Ca^2+
BK channels [6] = conditions: cultured neurons from rat hypothalamus and brain stem; ref Kang et al., 1994; cited from earlier work
[7] = system: large-conductance Ca^2+-activated K^+ channels (BK channels); format: biochemical, goldfish, Carassius auratus

[Ba+2] [Ba^2+, barium ion]
time constant of long shut events, second exponential ([1]; 20 μM [Ba^2+]i, 100 μM [Ca^2+]i, 50 mV, area 162 events): 359 ms
time constant of long shut events, first exponential ([1]; 20 μM [Ba^2+]i, 100 μM [Ca^2+]i, 50 mV, area 372 events): 18.8 ms
depth of the binding site within the membrane voltage field (Ba^2+ blockade) (BK channels [2]; ref Benham et al., 1985): 0.96
depth of the binding site within the membrane voltage field (Ba^2+ blockade) (BK channels [2]; ref Diaz et al., 1996): 0.92
depth of the binding site within the membrane voltage field (Ba^2+ blockade) (BK channels [2]; ref Neyton and Miller, 1988): 0.5–0.7
depth of the binding site within the membrane voltage field (Ba^2+ blockade) (BK channels [2]; ref Vergara and Latorre, 1983): 0.8

[Ca+2].[Cl-].[Cl-] [Ca^2+]
potency of fast blockade relative to Mg^2+ or Sr^2+ (BK channels [3]): > 10 ×
Hill coefficient for activation (slope of Hill plot) ([4]; 50 mV): 2.7
Po ([4]; 50 mV): 0.315
decrease in V0.5 produced by a 10-fold increase in concentration ([4]; eight membrane patches): ~35 mV
activation time constant [5]: 1.14 ms
deactivation time constant [5]: 0.54 ms
potency in reducing the outward current amplitude relative to internal Mg^2+ (BK channels [6]): ~1,000 ×
single-channel current amplitude ([7]; 5 μM [Ca^2+]i, 50 mV (original amplitude)): 13.2 pA
single-channel current amplitude ([7]; 5 μM [Ca^2+]i, 100 mV (original amplitude)): 26.1 pA

[Sr+2] [Sr^2+, Strontium]
half-activation voltage V0.5 (Boltzmann distribution) ([4]; 5 μM [Sr^2+]i): 72 mV
n (equivalent number of gating charges, Boltzmann distribution) ([4]; 5 μM [Sr^2+]i): 1.6
half-activation voltage V0.5 (Boltzmann distribution) ([4]; 20 μM [Sr^2+]i): 39 mV
n (equivalent number of gating charges, Boltzmann distribution) ([4]; 20 μM [Sr^2+]i): 1.4
half-activation voltage V0.5 (Boltzmann distribution) ([4]; 200 μM [Sr^2+]i): 1 mV
n (equivalent number of gating charges, Boltzmann distribution) ([4]; 200 μM [Sr^2+]i): 1.3
half-activation voltage V0.5 (Boltzmann distribution) ([4]; 1,000 μM [Sr^2+]i): −22 mV
n (equivalent number of gating charges, Boltzmann distribution) ([4]; 1,000 μM [Sr^2+]i): 1.3
Hill coefficient for activation (slope of Hill plot) ([4]; 2nd of +50 to −50 mV series (40 mV)): 1.3
Hill coefficient for activation (slope of Hill plot) ([4]; 3rd of +50 to −50 mV series (30 mV)): 1.2
Hill coefficient for activation (slope of Hill plot) ([4]; 4th of +50 to −50 mV series (20 mV)): 1.0
Hill coefficient for activation (slope of Hill plot) ([4]; 5th of +50 to −50 mV series (10 mV)): 0.83
Hill coefficient for activation (slope of Hill plot) ([4]; 6th of +50 to −50 mV series (−10 mV)): 0.69
Hill coefficient for activation (slope of Hill plot) ([4]; 7th of +50 to −50 mV series (−20 mV)): 0.70
Hill coefficient for activation (slope of Hill plot) ([4]; 8th of +50 to −50 mV series (−30 mV)): 0.79
Hill coefficient for activation (slope of Hill plot) ([4]; 9th of +50 to −50 mV series (−40 mV)): 0.78
Hill coefficient for activation (slope of Hill plot) ([4]; 10th of +50 to −50 mV series (−50 mV)): 0.72
Hill coefficient for activation (slope of Hill plot) ([4]; 50 mV): 1.6
Po ([4]; 50 mV): 0.309
Hill coefficient for activation ([4]; between −10 and −50 mV): ~0.7
potency in activating BK channels relative to Ca^2+ ([4]; from concentration–V0.5 plots, eight membrane patches): approximately one-fourth
decrease in V0.5 produced by a 10-fold increase in concentration ([4]; eight membrane patches): ~25 mV
activation time constant [5]: 1.22 ms
deactivation time constant [5]: 0.61 ms
duration of long shut events (slow blockade) [1]: 10 to 200 ms
probability for the open state during bursts (P[open|burst]) ([1]; 500 μM [Sr^2+]i at 30 mV): 0.86
time constant of burst durations (τb) ([1]; 0.5 mM [Sr^2+]i, 30 mV): 1,310 ms
time constant of long shut events (τl−s) ([1]; 0.5 mM [Sr^2+]i, 30 mV): 75.1 ms
time constant of burst durations (τb) ([1]; 0.5 mM [Sr^2+]i, 50 mV): 631 ms
time constant of long shut events (τl−s) ([1]; 0.5 mM [Sr^2+]i, 50 mV): 44.7 ms
time constant of burst durations (τb) ([1]; 2 mM [Sr^2+]i, 30 mV): 520 ms
time constant of long shut events (τl−s) ([1]; 2 mM [Sr^2+]i, 30 mV): 41.3 ms
time constant of burst durations (τb) ([1]; 2 mM [Sr^2+]i, 50 mV): 195 ms
time constant of long shut events (τl−s) ([1]; 2 mM [Sr^2+]i, 50 mV): 41.0 ms
time constant of burst durations (τb) ([1]; 10 mM Sr^2+, 50 mV, threshold time for long shut events 3.32 ms): 51.0 ms
time constant of burst durations (τb) ([1]; 10 mM Sr^2+, 50 mV, threshold time for long shut events 15.8 ms): 94.0 ms
probability for the open state during bursts (P[open|burst]) ([1]; 10 mM [Sr^2+]i at 50 mV): 0.94
time constant of burst durations (τb) ([1]; 10 mM [Sr^2+]i, 30 mV): 163 ms
time constant of long shut events (τl−s) ([1]; 10 mM [Sr^2+]i, 30 mV): 44.6 ms
time constant of long shut events (τl−s) ([1]; 10 mM [Sr^2+]i, 50 mV): 34.4 ms
time constant of burst durations (τb) ([1]; 10 mM [Sr^2+]i, 50 mV (threshold time for long shut events 6.64 ms)): 63.2 ms
τb ([1]; 10 mV, square patch (Fig. 9 C)): 425 ms
slope of log(n 1−s/n s) versus log([Sr^2+]i) ([1]; 10 mV, triangle patch): 0.95
slope of log(τb) versus log([Sr^2+]i) ([1]; 10 mV, triangle patch): −1.23
slope of log(τl−s) versus log([Sr^2+]i) ([1]; 10 mV, triangle patch): −0.15
slope of log(n 1−s/n s) versus log([Sr^2+]i) ([1]; 30 mV, circle patch): 0.71
slope of log(τb) versus log([Sr^2+]i) ([1]; 30 mV, circle patch): −0.74
slope of log(τl−s) versus log([Sr^2+]i) ([1]; 30 mV, circle patch): −0.094
slope of log(n 1−s/n s) versus log([Sr^2+]i) ([1]; 30 mV, triangle patch): 1.08
slope of log(τb) versus log([Sr^2+]i) ([1]; 30 mV, triangle patch): −0.78
slope of log(τl−s) versus log([Sr^2+]i) ([1]; 30 mV, triangle patch): 0.01
slope of log(n 1−s/n s) versus log([Sr^2+]i) ([1]; 50 mV, circle patch): 0.92
slope of log(τb) versus log([Sr^2+]i) ([1]; 50 mV, circle patch): −0.74
slope of log(τl−s) versus log([Sr^2+]i) ([1]; 50 mV, circle patch): −0.11
zd for slow blockade (Woodhull equation, Eq. 7) ([1]; one value per experiment): 0.95 and 1.84
slope of log(n 1−s/n s) versus log([Sr^2+]i) ([1]; square patch): 1.18
slope of log(τb) versus log([Sr^2+]i) ([1]; square patch): −1.00
slope of log(τl−s) versus log([Sr^2+]i) ([1]; square patch): −0.05
slopes of log(τb) versus log([Sr^2+]i) fitting lines ([1]; three experiments): −0.74 to −1.23
slopes of log(τl−s) versus log([Sr^2+]i) fitting lines ([1]; three experiments): −0.15–0.01
single-channel current amplitude ([7]; 0.1 mM [Sr^2+]i, 50 mV): 12.3 pA
single-channel current amplitude ([7]; 0.1 mM [Sr^2+]i, 100 mV): 23.7 pA
single-channel current amplitude ([7]; 1.0 mM [Sr^2+]i, 50 mV): 10.9 pA
single-channel current amplitude ([7]; 1.0 mM [Sr^2+]i, 100 mV): 19.7 pA
single-channel current amplitude ([7]; 10 mM [Sr^2+]i, 50 mV): 8.0 pA
single-channel current amplitude ([7]; 10 mM [Sr^2+]i, 100 mV): 9.8 pA
Hill coefficient for amplitude reduction (slope of Hill plot) ([7]; 1st of 100–30 mV series (100 mV)): 0.75
Hill coefficient for amplitude reduction (slope of Hill plot) ([7]; 2nd of 100–30 mV series (90 mV)): 0.73
Hill coefficient for amplitude reduction (slope of Hill plot) ([7]; 3rd of 100–30 mV series (80 mV)): 0.75
Hill coefficient for amplitude reduction (slope of Hill plot) ([7]; 4th of 100–30 mV series (70 mV)): 0.70
Hill coefficient for amplitude reduction (slope of Hill plot) ([7]; 5th of 100–30 mV series (60 mV)): 0.66
Hill coefficient for amplitude reduction (slope of Hill plot) ([7]; 6th of 100–30 mV series (50 mV)): 0.62
Hill coefficient for amplitude reduction (slope of Hill plot) ([7]; 7th of 100–30 mV series (40 mV)): 0.67
Hill coefficient for amplitude reduction (slope of Hill plot) ([7]; 8th of 100–30 mV series (30 mV)): 0.64
Hill coefficients for amplitude reduction ([7]; all voltages (30–100 mV), [Sr^2+]i 0.5 mM or higher): 0.62–0.75
internal concentration producing fast and slow blockade ([7]; concentration and voltage dependent): > 100 µM
permeation of the channel ([7]; no shift in the reversal voltage in the current–voltage relation): could scarcely permeate the channel

— publication PMC2222763 (The Journal of General Physiology, 1998)
